The source of these data is US12662494B2, “Optically active bridged piperidine derivative” (Sumitomo Pharma Co., Ltd., priority 2018, dated 2026).

Assay [1] deals with T1, Menin-MLL binding (His-Menin1-615 and MLL1-172-FLAG) (Homo sapiens, UniProt O00255).
T1 construct: Menin1-615 wherein 6× His tag and HA tag are inserted in the N-terminus; HA (N); myc (C)
T1 sequence (O00255 1-615 isoform O00255-1): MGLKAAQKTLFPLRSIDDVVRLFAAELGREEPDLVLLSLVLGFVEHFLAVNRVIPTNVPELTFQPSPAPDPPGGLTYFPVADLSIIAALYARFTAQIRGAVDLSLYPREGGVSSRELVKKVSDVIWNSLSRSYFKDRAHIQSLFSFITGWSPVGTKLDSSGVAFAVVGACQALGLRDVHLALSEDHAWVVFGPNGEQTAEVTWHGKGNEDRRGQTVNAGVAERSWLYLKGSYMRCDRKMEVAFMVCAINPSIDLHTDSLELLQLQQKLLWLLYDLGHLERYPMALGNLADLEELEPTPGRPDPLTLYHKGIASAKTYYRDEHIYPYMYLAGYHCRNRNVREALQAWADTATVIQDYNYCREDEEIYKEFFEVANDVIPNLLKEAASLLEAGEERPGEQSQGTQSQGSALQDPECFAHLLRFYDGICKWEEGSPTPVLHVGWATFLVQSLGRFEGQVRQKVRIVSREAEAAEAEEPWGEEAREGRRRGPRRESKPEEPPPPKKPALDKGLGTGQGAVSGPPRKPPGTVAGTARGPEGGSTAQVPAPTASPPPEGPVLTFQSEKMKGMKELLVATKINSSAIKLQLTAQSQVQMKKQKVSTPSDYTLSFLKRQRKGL
Put plainly: Test 1: inhibition of the menin-MLL binding (HTRF). The settings on record: for IC50: His-Menin1-615 30 nmol/L, MLL1-172-FLAG 50 nmol/L. As to the method:
Test 1: Test for Evaluating the Inhibition of the Menin-MLL Binding
Menin1-615 wherein 6× His tag and HA tag are inserted in the N-terminus, and myc tag is inserted in the C-terminus (hereinafter, referred to as His-Menin1-615), was diluted with an assay buffer (25 mmol/L HEPES, 150 mmol/L NaCl, 1 mmol/L dithiothreitol, 0.5% (w/v) Tween 80, 0.3% (w/v) BSA, 0.3% (w/v) skim milk) to adjust the final concentration to 30 nmol/L. The test compounds were also diluted with the assay buffer to adjust each concentration of the test compounds to 0.005 to 5 μmol/L. The prepared His-Menin1-615 and test compounds were added to a light-shielding 384-well low-volume plate (Corning, #4514) in 2 μL/well and […], respectively, and the plate was covered with a lid for light-shielding (Corning, #3935), and incubated at room temperature for 3 hours. After the incubation, MLL1-172 wherein FLAG tag is inserted in the C-terminus (MLL1-172-FLAG), was separately diluted with the assay buffer to adjust the final concentration to 50 nmol/L. The prepared MLL1-172-FLAG was added to the above plate in 2 μL/well, and the plate was covered with a lid for light-shielding and incubated at room temperature for an hour.
Then, anti-6HIS-d2 antibody (cisbio, 61HISDLA) and anti-FLAGM2-K antibody (cisbio, 61FG2KLA) were diluted with an antibody dilution buffer (50 mmol/L Tris, 150 mmol/L NaCl, 800 mmol/L KF, pH 7.4) to adjust the final concentration to 1.4 μg/mL to prepare an antibody mixture. The prepared antibody mixture was added to the above plate in 10 μL/well, and the plate was covered with a lid and incubated at 4° C. for 17 to 24 hours. After the incubation, the signal was detected with RUBYstar (BMG LABTECH).
On the technique in general: Time-resolved FRET reads energy transfer from a long-lived donor to a nearby acceptor.

The test system of a further assay is RS4; 11 cells. Put plainly: Test 2: inhibition of cell proliferation, RS4;11. The assay is classed as cell-based. The settings on record: for IC50: Homo sapiens, 168 h, RS4;11 cells, 7 days, PrestoBlue cell viability; for cell proliferation inhibition activity, good (in words): summary of Test 2 table, RS4;11 and MOLM-13. As to the method:
(§1) Test 2: Test for Evaluating the Inhibition of Cell Proliferation
(§2) RS4; 11 cells were obtained from American Type Culture Collection (ATCC). The cells were cultured at 37° C. in the presence of 5% CO2 in RPMI 1640 medium containing 10% fetal bovine serum and 1% penicillin/streptomycin. MOLM-13 cells were separately obtained from DSMZ (Deutsche Sammlung von Mikroorganismen und Zellkulturen GmbH). The cells were cultured at 37° C. in the presence of 5% CO2 in RPMI 1640 medium containing […] and 1% penicillin/streptomycin.
(§3) The cells were plated to a 96-well plate in 2000 cells/well, each test compound was added thereto to adjust the final concentration of DMSO to 0.1% of DMSO, and the cells were cultured for 7 days. After the cultivation, the cell viability was calculated with PrestoBlue™ Cell Viability Reagent (Invitrogen, A13261). The IC50 value was calculated from a survival curve, that corresponds to the concentration of the test compound at which the cell proliferation inhibition rate is 50%.

In the next assay the test system is MOLM-13 cells. Description: Test 2: inhibition of cell proliferation, MOLM-13. It counts as cell-based. The settings on record: Homo sapiens, 168 h, 7 days, PrestoBlue cell viability. Here is the method:
as §1, §2, §3

The test system of a further assay is MEIS1. Description: Test 3: inhibition of mRNA transcription, MEIS1 in MV4;11 cells. The assay is classed as cell-based. The settings on record: for mRNA at 1 μM (% control) MEIS1: MV4;11 cells, 20 to 24 hours, fitted with GAPDH; for mRNA transcription inhibition activity (in words): summary of Test 3 table, MEIS1 and HOXA9, MV4;11 cells, 1 μM. As to the method: (§4) Test 3: Test for the Inhibition of mRNA Transcription with Test Compounds
(§5) MV4; 11 cells were obtained from American Type Culture Collection (ATCC). The cells were cultured at 37° C. in the presence of 5% CO2 in RPMI 1640 medium containing 10% fetal bovine serum and 1% penicillin/streptomycin. To the MV4; 11 cells was added each test compound to adjust the final concentration to 1 μmol/L, and the cells were cultured at 37° C. in the presence of 5% CO2 for 20 to 24 hours. After the incubation, the total RNA was extracted from the cells with RNeasy™ Mini Kit (QIAGEN, 74106), and CDNA was synthesized with Superscript™ VILO™ CDNA Synthesis Kit (Invitrogen, #11754250). By using TaqMan™ Gene Expression Master Mix (Applied Biosystems, 4369016) and TaqMan™ probe (Applied Biosystems), the expression level of mRNA was quantified from the obtained cDNA with 7900HT (Applied Biosystems). The mRNA expression level of each obtained gene was fitted with the expression level of mRNA of GAPDH.

A further assay deals with HOXA9. Description: Test 3: inhibition of mRNA transcription, HOXA9 in MV4;11 cells. The assay is classed as cell-based. The settings on record: 20 to 24 hours, fitted with GAPDH. Here is the method:
as §4, §5

In general, IC50 refers to the concentration at which inhibition is half-maximal. High values mean a need for much substance, low ones inhibition by little substance. On to `N#Cc1cnc2sc(CC(F)(F)F)cc2c1N1CC2(CN(C(=O)[C@H]3N[C@H]4CC[C@@H]3C[C@@H]4CC3CC3)C2)C1` [Example 2, 4-{6-[(1S,3S,4R,6S)-6-(cyclopropylmethyl)-2-azabicyclo[2.2.2]octane-3-carbonyl]-2,6-diazaspiro[3.3]heptan-2-yl}-2-(2,2,2-trifluoroethyl)thieno[2,3-b]pyridine-5-carbonitrile], for which the IC50 was 7 nM in assay [1], 190 nM with RS4; 11 cells and 260 nM with MOLM-13 cells. Moreover, the “mRNA at 1 μM (% control) MEIS1” value with MEIS1 was 26.6 % control. Moreover, in the assay with HOXA9, the “mRNA at 1 μM (% control) HOXA9” value is on record as 48.2 % control.
In the case of `O=C([C@H]1N[C@H]2CC[C@@H]1C[C@H]2CC1CC1)N1CC2(C1)CN(c1c(C(F)(F)F)cnc3sc(CC(F)(F)F)cc13)C2` [Example 3, [(1S,3S,4R,6R)-6-(cyclopropylmethyl)-2-azabicyclo[2.2.2]octan-3-yl]{6-[2-(2,2,2-trifluoroethyl)-5-(trifluoromethyl)thieno[2,3-b]pyridin-4-yl]-2,6-diazaspiro[3.3]heptan-2-yl}methanone], the results for the concentration for half-maximal inhibition (IC50) (in assay [1]; with RS4; 11 cells; with MOLM-13 cells) were 88.6 nM, 590 nM and 800 nM, respectively. Also, the “mRNA at 1 μM (% control) MEIS1” value in the assay with MEIS1 worked out at 52.6 % control. In the assay on HOXA9, the “mRNA at 1 μM (% control) HOXA9” value came out at 54.0 % control.
On the same counts, the results for `N#Cc1cnc2sc(CC(F)(F)F)cc2c1N1CC2(CN(C(=O)[C@H]3N[C@H]4CC[C@@H]3C[C@H]4CC3CC3)C2)C1` [Example 4, 4-{6-[(1S,3S,4R,6R)-6-(cyclopropylmethyl)-2-azabicyclo[2.2.2]octane-3-carbonyl]-2,6-diazaspiro[3.3]heptan-2-yl}-2-(2,2,2-trifluoroethyl)thieno[2,3-b]pyridine-5-carbonitrile] are 48 nM, 290 nM, 710 nM, 47.1 % control and 52.5 % control.
For `C=C1C[C@@H]2CC[C@H]1[C@@H](C(=O)N1CC3(C1)CN(c1c(C(F)(F)F)cnc4sc(CC(F)(F)F)cc14)C3)N2` [Example 5, [(1S,3S,4R)-5-methylidene-2-azabicyclo[2.2.2]octan-3-yl]{6-[2-(2,2,2-trifluoroethyl)-5-(trifluoromethyl)thieno[2,3-b]pyridin-4-yl]-2,6-diazaspiro[3.3]heptan-2-yl}methanone] the same measures were 92.7 nM, 200 nM, 280 nM, 32.3 % control and 44.3 % control.
On the same counts, the results for `C=C1C[C@@H]2CC[C@H]1[C@@H](C(=O)N1CC3(C1)CN(c1c(C#N)cnc4sc(CC(F)(F)F)cc14)C3)N2` [Example 6, 4-{6-[(1S,3S,4R)-5-methylidene-2-azabicyclo[2.2.2]octane-3-carbonyl]-2,6-diazaspiro[3.3]heptan-2-yl}-2-(2,2,2-trifluoroethyl)thieno[2,3-b]pyridine-5-carbonitrile] are 9 nM, 90 nM, 200 nM, 27.4 % control and 45.9 % control.
As for `O=C([C@H]1N[C@H]2CC[C@@H]1[C@@H](F)[C@H]2CC1CC1)N1CC2(C1)CN(c1c(C(F)(F)F)cnc3sc(CC(F)(F)F)cc13)C2` [Example 13, [(1S,3S,4S,5S,6S)-6-(cyclopropylmethyl)-5-fluoro-2-azabicyclo[2.2.2]octan-3-yl]{6-[2-(2,2,2-trifluoroethyl)-5-(trifluoromethyl)thieno[2,3-b]pyridin-4-yl]-2,6-diazaspiro[3.3]heptan-2-yl}methanone], in assay [1], the IC50 stood at 54.2 nM. For the same molecule, in the assay with RS4; 11 cells, the IC50 stood at 440 nM and the “cell proliferation inhibition activity, good (in words)” value is given as “good cell proliferation inhibition activity”. This molecule also yielded an IC50 in the assay on MOLM-13 cells of 690 nM. In the assay on MEIS1, the “mRNA at 1 μM (% control) MEIS1” value was 39.6 % control and the “mRNA transcription inhibition activity (in words)” value is on record as “mRNA transcription inhibition activity”. For the same molecule, in the assay on HOXA9, the “mRNA at 1 μM (% control) HOXA9” value is 45.4 % control.
For the molecule `N#Cc1cnc2sc(CC(F)(F)F)cc2c1N1CC2(CN(C(=O)[C@H]3N[C@H]4CC[C@@H]3[C@@H](F)[C@H]4CC3CC3)C2)C1` [Example 14, 4-{6-[(1S,3S,4S,5S,6S)-6-(cyclopropylmethyl)-5-fluoro-2-azabicyclo[2.2.2]octane-3-carbonyl]-2,6-diazaspiro[3.3]heptan-2-yl}-2-(2,2,2-trifluoroethyl)thieno[2,3-b]pyridine-5-carbonitrile], the IC50 in assay [1] was determined as 21.7 nM. Further, the “menin-MLL binding inhibition activity (in words)” value in assay [1] (summary of Test 1 table) is on record as “potent menin-MLL binding inhibition activity”. Also, in the assay on RS4; 11 cells, inhibition was half-maximal at 260 nM (IC50) and the “cell proliferation inhibition activity, good (in words)” value is on record as “good cell proliferation inhibition activity”. The IC50 in the assay with MOLM-13 cells was 550 nM. In the assay on MEIS1, the “mRNA at 1 μM (% control) MEIS1” value is recorded as 38.5 % control and the “mRNA transcription inhibition activity (in words)” value is listed as “mRNA transcription inhibition activity”. In addition, the “mRNA at 1 μM (% control) HOXA9” value in the assay with HOXA9 is reported as 51.4 % control.
